Experimental data: US7772183B2 (Bristol-Myers Squibb Company, priority 2005, dated 2010)

How the values were obtained:
[1] = test system: HCV replicon (Renilla luciferase reporter) in HUH-7 cells; test: HCV replicon luciferase reporter assay; type: cell-based, Hepatitis C virus (strain 1b); conditions: Huh-7, 96 h, 4 days
Text: An HCV replicon whole cell system was established as described by Lohmann V, Komer F, Koch J, Herian U, Theilmann L, Bartenschlager R., Science 285(5424):110-3 (1999). This system enabled us to evaluate the effects of our HCV Protease compounds on HCV RNA replication. Briefly, using the HCV strain 1b sequence described in the Lohmann paper (Assession number: AJ238799), an HCV cDNA was synthesized by Operon Technologies, Inc. (Alameda, Calif.), and the full-length replicon was then assembled in plasmid pGem9zf(+) (Promega, Madison, Wis.) using standard molecular biology techniques. The replicon consists of (i) the HCV 5′ UTR fused to the first 12 amino acids of the capsid protein, (ii) the neomycin phosphotransferase gene (neo), (iii) the IRES from encephalomyocarditis virus (EMCV), and (iv) HCV NS3 to NS5B genes and the HCV 3′ UTR. […]
As a secondary assay, EC50 determinations from the replicon FRET assay were confirmed in a replicon luciferase reporter assay. […] Following 4 days in a 37° C./5% CO2 incubator, cells were analyzed for Renilla Luciferase activity using the Promega Dual-Glo Luciferase Assay System. […] Plates were read on a Packard TopCount NXT using a luminescence program.
The percentage inhibition was calculated using the formula below: […]
The values were graphed and analyzed using XLfit to obtain the EC50 value.

[2] = target: T1, human neutrophil elastase (HNE) (Homo sapiens, UniProt P08246); test: Specificity assay, neutrophil elastase; type: biochemical; conditions: read-out: HLE activity in the specificity assays
T1 construct: purchased Sigma or EMDbiosciences
T1 sequence (P08246 30-267): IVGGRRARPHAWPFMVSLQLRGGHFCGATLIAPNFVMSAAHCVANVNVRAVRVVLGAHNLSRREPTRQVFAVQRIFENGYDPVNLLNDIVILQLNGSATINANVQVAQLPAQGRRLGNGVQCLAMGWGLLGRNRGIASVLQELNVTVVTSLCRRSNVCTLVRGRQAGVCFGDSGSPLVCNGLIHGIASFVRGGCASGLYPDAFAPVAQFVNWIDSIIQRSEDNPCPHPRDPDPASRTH
Description: The specificities of compounds of the present disclosure were determined against a variety of serine proteases: human neutrophil elastase (HNE), porcine pancreatic elastase (PPE) and human pancreatic chymotrypsin and one cysteine protease: human liver cathepsin B. In all cases, a 96-well plate format protocol using colorimetric p-nitroaniline (pNA) substrate or fluorometric Amino-Methyl-Coumarin (AMC) substrate, specific for each enzyme was used as described previously (PCT Patent Application No. WO 00/09543) with some modifications. All enzymes were purchased from Sigma or EMDbiosciences while the substrates were from Bachem.
Each pNA assay included a 2 h enzyme-inhibitor pre-incubation at room temperature followed by addition of substrate and hydrolysis to ˜15% conversion as measured on a Spectramax Pro microplate reader. The cathepsin B assay was initiated by adding substrate to a 10 min enzyme-inhibitor pre-incubation at room temperature, and the assay plate measured immediately using the Cytofluor Series 4000. Compound concentrations varied from 100 to 0.4 μM depending on their potency.
The final conditions for each assay were as follows: […]
The percentage of inhibition was calculated using the formula: [1−((UVinh−UVblank)/(UVctl−UVblank))]×100 […]

`CC(C)(C)OC(=O)N[C@H]1CCCCC/C=C\[C@@H]2C[C@@]2(C(=O)NS(=O)(=O)C2CC2)NC(=O)[C@@H]2C[C@@H](OC(=O)c3ccc(C#N)cc3)CN2C1=O` [Compound 26, 18-(4-cyanobenzoyloxy)-14-tert-butoxycarbonylamino-4-cyclopropylsulfonylaminocarbonyl-2,15-dioxo-3,16-diazatricyclo-[14.3.0.0^4,6]-nonadec-7-ene] gave an EC50 [1] of 4.3 nM and an IC50 [2] of over 100000 nM.
